What was measured:
[1] = test system: OCC1-SEAP-12 ovarian cancer cells; conditions: LY294002 alone (Westfall and Skinner 2005); cited from earlier work
caspase 3 = assay: Western blot for active caspase 3 (Example III); type: cell-based, human; conditions: LY294002 10 μM, carboplatin 50 μg/ml
Description: The OCC1-SEAP-12 cells were grown to 80% confluence. Cultures were incubated in DMEM plus 0.1% bovine serum albumin (BSA) and 0.1% BCS to which either vehicle control, carboplatin (0-50 μg/ml), LY294002 (0-20 μM) or combinations of these treatments. Following 24, 48 or 72 hr cells were lysed with sample buffer (62.5 mM Tris-HCl, pH 6.8, 2% SDS, 5% glycerol, […], 0.5% β-mercaptoethanol). Total cell lysates were subjected to SDS polyacrylamide gel electrophoresis 9 page) and transferred to PVDF membranes (Millipore, Bedford, Mass.). Membranes were immunoblotted with antibodies to both the phosphorylated and non-phosphorylated forms of […] (Cell Signaling Technology, Beverly, Mass.), or alternatively, with antibodies to cleaved and full length caspase-3 (Cell Signaling Technology, Beverly, Mass.).

OCC1-SEAP-12 cells = assay: Growth assay, [3H] thymidine incorporation (Example III); type: cell-based, human; conditions: LY294002, 18h treatment
Description: Cell proliferation was analyzed by determining the amount of [^3H] thymidine incorporation Into newly synthesized DNA. The OCC1-SEAP-12 cells were plated in 24 well plates in Ham's F-12 medium plus 10% BCS and allowed to reach 50 to 70% confluence. Following a 48 hr serum starvation, the culture medium was changed to Dulbecco's Modified Eagle Medium (DMEM) plus 0.1% BSA and 0.1% BCS containing either vehicle control or carboplatin (0-100 μg/ml) alone, or in combination with LY294002 (0-20 μM). Treatments were removed after 18h and cells were incubated for 4 hr in medium containing 5 μCi/ml of [^3H] thymidine. Medium was removed and cells were disrupted by sonication in phosphate buffered saline (PBS). An aliquot of the sonicated solution of PBS was loaded onto a DEAE filtration plate (Millipore, Bedford, Mass.), and individual filters with bound DNA were collected for scintillation counting. Data was normalized to total DNA per well and was determined by a SYBR green fluorescent assay (Nilsson E E, Westfall S D, McDonald C, Ligon T, Sadler-Riggleman I, Skinner M K. An in vivo mouse reporter gene (human secreted alkaline phosphatase) model to monitor ovarian tumor growth and response to therapeutics. Cancer Chemother Pharmacol 2002; 49(2):93-100).

[2] = test system: OCC1-SEAP-12 ovarian cancer cells; assay: Cell survival by DNA content of culture wells (Example III); type: cell-based, human
Description: Cell survival was assessed as cell number remaining in culture following exposure to treatments. The DNA content of individual culture wells was used as an indication of cell number. Cells plated in 24 well culture plates were allowed to approach confluence (80%) in Ham's F-12 medium plus 10% BCS. […] Media aliquots were taken when appropriate for SEAP analysis. The DNA was measured fluorometrically as previously described (Nilsson […], Ligon […]. An in vivo mouse reporter gene (human secreted alkaline phosphatase) model to monitor ovarian tumor growth and response to therapeutics. Cancer Chemother Pharmacol 2002; 49(2):93-100). Briefly, the fluorescence of aliquots of sonicated cell suspensions into which SYBR Green I fluorescent dye (Molecular Probes, Eugene Oreg.) had been incorporated, was measured.

[3] = test system: OCC1-SEAP-12 ovarian cancer cells; type: in vivo
Description: Athymic nude mice were obtained and inoculated intraperitoneally with OCC1-SEAP-12 cells as described above in Examples I and II. Animals received injections of either vehicle control (PBS containing 25% DMSO), or carboplatin (60 mg/kg) alone, or in combination with LY294002 (50 mg/kg) every other day for 6 days. Blood samples were collected into capillary tubes from saphenous vein lancings at regular intervals during and following treatments. Capillary tubes were centrifuged, and the plasma samples were frozen (−20° C.), until the time of SEAP assay. The Washington State University Animal Care and Use Committee approved all procedures.
Blood plasma and cell culture medium samples were assayed for SEAP activity using the Great EscAPe SEAP fluorescence detection kit (Clontech Laboratories, Palo Alto, Calif.) as described above in Examples I and II. Blood plasma samples were diluted 1:100 prior to the assay to bring values within the linear range of the standard curve. The intraassay and interassay coefficients of variation were 2.5% and 18.8%, respectively.

Akt = assay: Western blot for Akt phosphorylation (Example III); type: cell-based, human; conditions: 6 hr and 24 hr; LY294002 10 (FIG. 18 legend: mM), carboplatin 50
Description: The OCC1-SEAP-12 cells were grown to 80% confluence. […] […] Total cell lysates were subjected to SDS polyacrylamide gel electrophoresis 9 page) and transferred to PVDF membranes (Millipore, Bedford, Mass.). Membranes were immunoblotted with antibodies to both the phosphorylated and non-phosphorylated forms of […] (Cell Signaling Technology, Beverly, Mass.), or alternatively, with antibodies to cleaved and full length caspase-3 (Cell Signaling Technology, Beverly, Mass.).

[4] = TPL 0.15 mg/kg, nude mice; cited from earlier work
OCC1-SEAP cell cultures = assay: DNA fragmentation (laddering) on agarose gel (Example II); type: cell-based, human; conditions: 48 hr; TPL 100 ng/ml, carboplatin 50 μg/ml
Description: Following 48 h to 72 h treatment incubations, cells were suspended into culture medium and pelleted in tubes. DNA was isolated from collected cells using a Puregene™ DNA isolation kit (Gentra Systems, Minneapolis, Minn.). The quantity and purity of nucleic acid preparations were estimated by measuring the absorbance of each sample (A260/A280). DNA preparations (10 μg/well) were loaded onto 1.2% agarose gels and visualized with ethidium bromide stain.

[5] = test system: OCC1-SEAP ovarian cancer cells; assay: Cell survival by DNA content of culture wells (Example II); type: cell-based, human; conditions: 48 hours; triptolide 100 ng/ml, carboplatin 50 (FIG. 8 legend: mg/ml)
Description: Cell survival was assessed as the number of cells remaining in culture, following exposure to treatments. The DNA content of individual culture wells was used as an indication of cell number. Cells plated in 24 well culture plates were allowed to approach confluence (80%) in Ham's F-12 medium plus 10% BCS. Cultures were then incubated in DMEM, plus 0.1% BSA and 0.1% BCS, in the presence of vehicle control, carboplatin (0-100 μg/ml), Triptolide (100 ng/ml) or a combination of these for 24 to 96 hrs. Media aliquots were taken when appropriate for SEAP analysis. The DNA was measured fluorometrically, as described above, in Example I. Briefly, the fluorescence of an aliquot of sonicated cell suspension, into which SYBR Green I fluorescent dye (Molecular Probes, Eugene, Oreg.), had been incorporated was measured.

breast cancer xenografts = conditions: TPL 0.5 mg/kg; cited from earlier work
caspase-3 = assay: Western blot for active caspase-3 (Example II); type: cell-based, human; conditions: 24 h; TPL 100 ng/ml, carboplatin 50
OCC1-SEAP tumor = assay: Nude mouse tumor model, intraperitoneal OCC1-SEAP cells, plasma SEAP (Example II); type: in vivo
Description: Athymic nude mice (NCR Nu/Nu) were either purchased from Taconic (Germantown, N.Y.) or bred in-house at Washington State University, Pullman, Wash. The OCC1-SEAP cells were collected in Hank's balanced salt solution and counted prior to injection. Treatments were initiated 7 to 10 days following an intraperitoneal inoculation of mice with 1×10^7 OCC1-SEAP cells, as described above, in Example I.
Stock solutions of carboplatin (paraplatin; Bristol-Myers Squibb, Princeton, N.J.) and TPL (Calbiochem, CA), were prepared in sterile filtered PBS and DMSO, respectively. Animals received intraperitoneal injections of either vehicle controlled (PBS containing 4% DMSO), or carboplatin (60 mg/kg), alone, or in combination with TPL (0-1.0 mg/kg), every other day for 5 days. Alternatively, TPL (0.15 mg/kg) was injected every day for 10 days. For these experiments, carboplatin was administered under the same schedule of every other day for 5 days. Some mice were also treated with 40 mg/kg of LY294002 every other day for 5 days, with an intraperitoneal injection in the presence of TPL and carboplatin. Blood samples were collected into capillary tubes from saphenous vein lancings at regular intervals during and following treatments. The capillary tubes were centrifuged and the plasma samples were frozen at −20° C., until the time of SEAP assay. The Washington State University Animal Care and Use Committee approved all procedures.
Blood plasma and cell culture medium samples were assayed for SEAP activity using the Great EscAPe SEAP fluorescence detection kit (Clontech Laboratories, Palo Alto, Calif.), as described above in Example I. Blood plasma samples were diluted 1:100, prior to the assay to bring values within the linear range of the standard curve. The intraassay and interassay coefficients of variation were 2.5% and 18.8%, respectively. In the case of the experiments in which mice were treated with a combination of TPL, LY294002 and carboplatin, there was some variation in the extent of tumor growth in the control mice. In order to better compare response to treatment across experiments, the SEAP assay data between experiments were normalized by dividing each data point by the overall mean of all SEAP measurements from that experiment and up, through day 18. The normalized data then reflect the relative tumor burden of each mouse, compared to others in the experimental group, and can be combined across experiments.

solid tumor types = conditions: TPL 0.15 mg/kg; cited from earlier work
[6] = test system: OCC1-SEAP intraperitoneal tumors; assay: Nude mouse intraperitoneal OCC1-SEAP tumor model, plasma SEAP (Example I); type: in vivo, athymic nude mice
Description: Athymic nude mice (Nu/Nu; Charles River Laboratories, Wilmington, Mass.) weighing about 25 g were used for in vivo studies.
Three mice were injected intraperitoneally with 1×10^7 OCC1-SEAP-12 cells. The experimental treatments began after 1 week. […] Alternatively, four mice with well-developed tumors (2-4 weeks after injection) were treated with a high dose of carboplatin (60 mg/kg) three times over a period of 4 days. After death all visible intraperitoneal tumors were dissected out and weighed.
Blood samples were collected from saphenous vein lancings three times per week into heparinized capillary tubes. The capillary tubes were centrifuged and the plasma samples were frozen at −20° C. until the time of SEAP assay. Blood samples were taken for SEAP assay from the mice within 24 hours of death 2-3 weeks after intraperitoneal injection of OCC1-SEAP cells.
Blood plasma and cell culture medium samples were assayed for SEAP activity using the Great EscAPe SEAP fluorescence detection kit (Clontech Laboratories, Palo Alto, Calif.). SEAP is secreted at a constant rate by transfected tumor cells and distributed throughout the body or into the culture medium. SEAP is heat stable, so any endogenous alkaline phosphatase activity in blood plasma is destroyed by heat treatment of the samples (65° C. for 30 minutes) during the assay. The SEAP enzyme in each sample acts on the substrate 4-methylumbelliferyl phosphate during a 1 hour incubation at room temperature to produce a fluorescent product with excitation and emission peaks at 360 and 449 nm, respectively. A fluorimeter is then used to measure SEAP activity. The intra-assay and inter-assay coefficients of variation were 2.5% and 18.8%, respectively. Blood plasma samples were diluted 1:100 prior to the assay to bring values within the linear range of the standard curve.

O=c1cc(N2CCOCC2)oc2c(-c3ccccc3)cccc12 [LY294002, 2-(4-morpholinyl)-8-phenyl-4H-1-benzopyran-4-one]
effect on ovarian cancer tumor progression [1]: negligible effects
time at which active 17 kDa caspase 3 appears (caspase 3): 72 h
block of basal DNA synthesis (OCC1-SEAP-12 cells): 50%
reduction of cell number ([2]; 5 μM LY294002, 48 hr incubation): 22%
reduction of cell number ([2]; 10 μM LY294002, 48 hr incubation): 44%
abdominal swelling (FIG. 24) ([3]; physical appearance of mice after treatment): displayed abdominal swelling
tumor size vs vehicle control (FIG. 23) ([3]; single agents: LY294002 50 mg/kg, carboplatin 60 mg/kg): no significant difference
Akt phosphorylation (Akt): blocked basal levels

CC(C)[C@]12O[C@H]1[C@@H]1O[C@]13[C@]1(O[C@H]1C[C@H]1C4=C(CC[C@@]13C)C(=O)OC4)[C@@H]2O [TPL, Triptolide]
dose as share of the maximum tolerated dose [4]: 60%
DNA laddering (OCC1-SEAP cell cultures): evident
decrease in cell survival (μg DNA/ml) compared to control cultures [5]: approximately 40%
toxicity of dose (breast cancer xenografts): lethal
induction of active caspase-3 (caspase-3): robust induction
toxicity (OCC1-SEAP tumor; TPL 0.5 mg/kg ip every other day over 5 days): no apparent toxicity
mice expired within 24 hours (OCC1-SEAP tumor; TPL 1.0 mg/kg intraperitoneal): 2 of 3
SEAP values vs vehicle control (OCC1-SEAP tumor; TPL 0.125, 0.25 or 0.5 mg/kg ip every other day over 5 days): not significant differences
tumor burden vs vehicle control (FIG. 11) (OCC1-SEAP tumor; high dose, short duration: TPL 0.5 mg/kg, carboplatin 60 mg/kg every other day for 5 days): no significant difference
tumor burden as measured by SEAP levels vs vehicle control (FIG. 12) (OCC1-SEAP tumor; low dose, long duration: TPL 0.15 mg/kg every day for 10 days, carboplatin 60 mg/kg every other day for 5 days): no significant difference
inhibition of growth and metastasis of solid tumors (solid tumor types): potent

N.N.[Cl][Pt][Cl] [cisplatin]
tumor growth by plasma SEAP compared to vehicle controls ([6]; 3 or 10 mg/kg cisplatin every 48-72 h over a 2-week period, intraperitoneal): decreased tumor growth
difference in tumor growth between 3 and 10 mg/kg ([6]; cisplatin 3 vs 10 mg/kg): No difference

From US20110045102A1, “Cancer chemotherapy compositions comprising PI3K pathway modulators and triptolide” (priority 2005, published 2011)
